Article PMC3520603 (Journal of biomolecular screening, 2012)
Structures can show the parent of a compound that is named as a salt. Where two headings read alike, the source gives them in different places.

What was measured:
Type in all cases: binding
[1] = biological target: T1, RVFV nucleocapsid N protein (Rift valley fever virus, UniProt P21700)
[2] = biological target: T1, RVFV nucleocapsid N protein; experiment: biochemical
[3] = biological target: T1, RVFV nucleocapsid N protein; experiment: biochemical; remark: listed apart in the source

T1 sequence (P21700 whole entry, looked up): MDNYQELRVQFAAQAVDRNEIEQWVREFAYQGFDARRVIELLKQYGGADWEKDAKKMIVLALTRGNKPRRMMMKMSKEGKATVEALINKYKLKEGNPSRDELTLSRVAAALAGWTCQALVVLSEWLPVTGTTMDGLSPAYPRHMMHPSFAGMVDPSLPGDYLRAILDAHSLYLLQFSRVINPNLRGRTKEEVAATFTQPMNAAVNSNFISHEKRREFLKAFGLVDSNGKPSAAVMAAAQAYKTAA

| SMILES | Percent Inhibition HTS [1] [%] | Avg. Hill slope [2] | IC50 [2] [µM] | Avg. Hill slope [3] | IC50 [3] [µM] |
| --- | --- | --- | --- | --- | --- |
| Br.CN=c1nc(-c2ccccc2)n(-c2ccccc2)s1 [S 4063] | 50.3 | −1.64 | 6.7 ± 2.9 | – | – |
| CCN(CC)CCCC(C)Nc1c2ccc(Cl)cc2nc2ccc(OC)cc12 (stereo not shown) [quinacrine dihydrochloride] | 65.7 | – | – | −2.99 | 162 ± 26 |
| Cc1ccc(C(=O)Nc2ccc(S(=O)(=O)O)c3cc(S(=O)(=O)O)cc(S(=O)(=O)O)c23)cc1NC(=O)c1cccc(NC(=O)Nc2cccc(C(=O)Nc3cc(C(=O)Nc4ccc(S(=O)(=O)O)c5cc(S(=O)(=O)O)cc(S(=O)(=O)O)c45)ccc3C)c2)c1 [suramin sodium salt] | 93.3 | −2.76 | 16.3 ± 7.3 | – | – |
| CC[C@@]1(O)C(=O)OCc2c1cc1n(c2=O)Cc2cc3c(CN(C)C)c(O)ccc3nc2-1 [topotecan] | 85.9 | – | – | – | – |
